In patent US10143686B2, “Oxidosqualene cyclase as a protein target for anticancer therapeutics” (The Curators of the University of Missouri, priority 2010, dated 2018):
Structures can show the parent of a compound that is named as a salt. Where two headings read alike, the source gives them in different places.

Tests used:
[1] = test system: BT-474 breast cancer cells; assay: SRB cell viability assay, BT-474; assay type: cell-based, human; conditions: for IC50: Homo sapiens, BT-474, Breast (ER+ PR+)
Protocol: The sulforhodamine B (SRB) assay was employed to evaluate the effect of OSC inhibitor Ro 48-8071 on viability of breast cancer and normal mammary gland cells with slight modification of the original procedure established at NCI. Accordingly, the cells were seeded in 96-well plates in 100 μl culture medium and incubated overnight at 37° C. with 5% CO2. […] The surviving or adherent cells were fixed in situ by withdrawing the growth medium and adding 100 μl of PBS and 100 μl of 50% cold trichloroacetic acid and then incubating at 4° C. for 1 h. The surviving cells were washed with ice-water, dried at room temperature (RT), and then stained with 50 μl 4% SRB for 8 min at RT. Unbound dye was removed by washing 5 times with cold 1% acetic acid, and the plates were dried at RT. Bound stain was solubilized with 150 μl 10 mM Tris buffer, and absorbance of samples were measured at 520 nm with a SpecTRA MAX 190 microplate reader (Sunnyvale, Calif.). In these experiments on BT-474, T47-D, and AG11132A cell lines, six wells were used for each concentration, and each experiment was performed at least twice.
(§1) The effect of OSC inhibition was evaluated in additional cancer cell lines as well. Cancer cell lines may be purchased from ATCC (Manassas, Va.). The SRB assay has been employed for determination of the inhibitory effects of RO 48-8071 on growth of different cancer cells. Cells were seeded into 96-well plates and incubated overnight at 37° C. with 5% CO2. The culture medium was removed after 24 hours, and cells were washed with DMEM/F12 medium and then treated with various concentrations of RO 48-8071 in 5% FBS culture medium for 24 and 48 hours. Surviving or adherent cells were fixed in situ by withdrawing the growth medium, adding 100 μl PBS and 100 μl 50% trichloroacetic acid and then incubating at 4° C. for one hour. Cells were washed with ice-cold water, dried at room temperature (RT), and then stained with 50 μl 4% SRB for eight minutes at RT. Unbound dye was removed by washing with cold 1% acetic acid for five times, and plates were dried at RT. Bound stain was solubilized with 150 μl 10 mM Tris buffer and absorbance of samples was read at 520 nm with a SpecTRA MAX 190 microplate reader (Molecular Devices, Sunnyvale, Calif.). Six wells were used for each concentration, and each experiment was performed two to three times.
Effect of RO 48-8071 on breast cancer cell line BT-474 viability. […] The culture mediums employed 10% FBS DMEM/F12 for culture and 5% FBS DMEM/F12 for treatment.

[2] = test system: PC-3 human prostate cancer xenograft; assay: PC-3 prostate tumor xenograft in nude mice
Protocol: Male athymic nu/nu nude mice, 6 weeks-old (21-25 g) were purchased from Harlan Laboratories, Inc. Human prostate cancer PC-3 cells, […] in 0.15 ml solution mixed with matrigel and DMEM/F12 medium (1/1, v/v) were injected into each flank of mouse subcutaneously, and both flanks of each mouse were injected. When tumor volume reached around 100 mm3, animals were randomly assigned to three groups and the treatment started with Ro 48-8071 (5 mg/kg/day or 20 mg/kg/day) via tail-vein injection for five days, followed by same treatment every other day for seven additional times as shown in the FIG. 14A. Animals in control group received the vehicle alone under identical conditions.

[3] = test system: BT-20 breast cancer cells; assay: SRB cell viability assay, BT-20; assay type: cell-based; conditions: Homo sapiens, BT-20, Breast (triple negative)
Protocol: as §1
Effect of RO 48-8071 on estrogen, progesterone, and HER-2/neu receptors negative breast cancer cell line MDA-231 and BT-20 viability. […]

[4] = test system: PC-3 prostate cancer cells; assay: SRB cell viability assay, PC-3; assay type: cell-based; conditions: Homo sapiens
Protocol: as §1
Effect of RO 48-8071 on prostate cancer cell line PC-3 viability. […]

[5] = test system: Capan-1 pancreatic cancer cells; assay: SRB cell viability assay, Capan-1; assay type: cell-based; conditions: Homo sapiens, Capan-1, Pancreas
Protocol: as §1
Effect of RO 48-8071 on pancreatic cancer cell line Capan-1 viability. […] The culture mediums employed 20% FBS IMDM for culture and 10% FBS IMDM for treatment.

[6] = test system: BT-474 human breast cancer xenograft; assay: BT-474 breast tumor xenograft in nude mice
Protocol: Female athymic nu/nu nude mice, 5 to 6 weeks-old (18-22 g) were purchased from Harland Sprague-Dawley, Inc. Nude mice were inoculated with 17-β-Estradiol pellets (1.7 mg/pellet, 60 days release) 48 hours before inoculating tumor cells. BT-474 human breast cancer cells, 5×10^6 in 0.15 ml solution mixed with matrigel and DMEM/F12 medium (4/1, v/v) were injected into each flank of mouse subcutaneously and both flanks of each mouse were injected. When tumor volume reached around 100 mm3, animal were randomly assigned to three groups and the treatment started with RO 48-8071 (5 mg/kg/day or 10 mg/kg/day) via tail-vein injection for five days, followed by same treatment every other day for five additional times as shown in the FIG. 13A. Animals in control group received the vehicle alone under identical conditions. Tumor volumes were measured by a digital caliper and calculated using the formula (L×W×H)×0.5236.
Animal weight was monitored throughout the experiment.

A549 lung cancer cells = assay: SRB cell viability assay, A549; assay type: cell-based; conditions: Homo sapiens
Protocol: as §1
Effect of RO 48-8071 on lung cancer cell line A549 viability. […] The culture mediums employed 10% FBS F-12K for culture and 5% FBS F-12K for treatment.

[7] = 24 hours, read-out: IC50 (μM) (24 hours)
[8] = 48 hours, read-out: IC50 (μM) (48 hours)

`C=CCN(C)CCCCCCOc1ccc(C(=O)c2ccc(Br)cc2)c(F)c1` [Ro 48-8071, 4′-[6-(Allylmethylamino)hexyloxy]-4-bromo-2′-fluorobenzophenone fumarate] was tested, and the “effect on cell viability (SRB)” value ([1]; BT-474, 24 hours, dose-dependent, FIG. 2A) was “significantly inhibit the viability”, the IC50 [1, 7] was 9.514 ± 0.05 µM and the IC50 [1, 8] was 6.06 ± 0.233 µM. For the same molecule, the “tumor volume versus control group” value ([2]; 5 or 20 mg/kg/day, tail-vein injection, P<0.05 ANOVA, FIG. 14A) was “Significant differences compared with control group”, the “toxicity at doses used for inhibiting tumor growth” value ([2]; PC-3 tumor-bearing nude mice) was “non-toxic” and the “animal weight, control versus treated groups” value ([2]; PC-3 tumor-bearing nude mice, FIG. 14B) was “No significant difference”. The IC50 [3, 7] was 15.8 ± 0.335 µM, the IC50 [3, 8] was 12.7 ± 0.18 µM and the IC50 [4, 7] was 17.8 ± 1.29 µM. For the same molecule, the IC50 [4, 8] was 11.1 ± 0.35 µM, the IC50 [5, 7] was 18.6 ± 1.62 µM and the IC50 [5, 8] was 13.7 ± 0.168 µM. For the same molecule, the “tumor volume versus control group” value ([6]; 5 or 10 mg/kg/day, tail-vein injection, P<0.05 ANOVA, FIG. 13A) was “Significant differences were observed compared with control group”, the “toxicity at doses used for inhibiting tumor growth” value ([6]; BT-474 tumor-bearing nude mice) was “non-toxic” and the “animal weight, control versus treated groups” value ([6]; BT-474 tumor-bearing nude mice, FIG. 13B) was “No significant difference”. For the same molecule, the IC50 (A549 lung cancer cells; [7]) was 13.5 ± 0.928 µM and the IC50 (A549 lung cancer cells; [8]) was 9.26 ± 0.454 µM.
